Like-named read-outs stand apart in the source and are kept apart here. *1 amine or outer side, *2 acyl side, *3 side chain or, on linkers, in order; H or OH if unused. Where a SMILES comes first, the peptide text is derived from it. Bridges are numbered along the chain shown (N, C = ends). [ ]: non-standard residue; d: D form. The star is where a group is joined. TBMB(SCH2CH2NH-DOTA) = O=C(O)CN1CCN(CC(=O)O)CCN(CC(=O)NCCSCc2cc(C[*:1])cc(C[*:2])c2)CCN(CC(=O)O)CC1; X5 = NC(=O)[C@H](CCCCNC(=O)CN1CCN(CC(=O)O)CCN(CC(=O)O)CCN(CC(=O)O)CC1)NC(=O)CCC(=O)NCCCOCCOCCOCCCN*; NH(1-deoxy-D-glucityl) = OC[C@@H](O)[C@@H](O)[C@H](O)[C@@H](O)CN*; DOTA = O=C(O)CN1CCN(CC(=O)O)CCN(CC(=O)*)CCN(CC(=O)O)CC1; Trp(5-Cl) = N[C@@H](Cc1c[nH]c2ccc(Cl)cc12)C(=O)O; Pyridine(2,6-diCH2) = c1cc(C[*:1])nc(C[*:2])c1; Pro(4R-NH2) = N[C@H]1CN[C@H](C(=O)O)C1; 1Nal = N[C@@H](Cc1cccc2ccccc12)C(=O)O; mXylylene = c1cc(C[*:1])cc(C[*:2])c1; Glutaryl = O=C(CCCC(=O)[*:2])[*:1]; Hyp = O=C(O)[C@@H]1C[C@@H](O)CN1; X1 = O=C(CN1CCC(N[*:1])CC1)[*:2]; Suc = O=C(CCC(=O)[*:2])[*:1]; Thp = NC1(C(=O)O)CCOCC1; AEEA = NCCOCCOCC(=O)O
Target: T1, GIPR (CHO-K1-hGIPR cells) (Homo sapiens, UniProt P48546)
T1 construct: host or cells: CHO-K1
T1 sequence (P48546 22-466): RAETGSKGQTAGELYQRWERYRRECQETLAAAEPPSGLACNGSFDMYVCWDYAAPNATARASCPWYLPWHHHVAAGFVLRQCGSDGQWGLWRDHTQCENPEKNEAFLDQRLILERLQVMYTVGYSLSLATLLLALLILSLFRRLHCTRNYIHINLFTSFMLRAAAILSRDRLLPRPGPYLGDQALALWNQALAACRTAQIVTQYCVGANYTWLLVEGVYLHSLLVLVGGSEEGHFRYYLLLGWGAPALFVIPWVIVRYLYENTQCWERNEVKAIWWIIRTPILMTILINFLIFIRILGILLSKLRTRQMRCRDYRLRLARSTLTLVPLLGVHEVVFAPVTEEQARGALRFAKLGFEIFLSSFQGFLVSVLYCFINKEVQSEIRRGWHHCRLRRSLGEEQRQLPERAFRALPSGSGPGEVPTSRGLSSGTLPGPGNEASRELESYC
Experiment: FACS binding assay
Settings: read-out: pIC50 Category (converted)
Summary of the method: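 Peptide binding read by flow cytometry as APC-channel median fluorescence, fitted with a four-parameter logistic to yield EC50 or IC50. Cells were hGIPR-transfected CHO-K1 in PBS with 1% FCS, detected with 1 μg/mL APC-streptavidin, 30 min on ice.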

[1] = competition with 20 nM GIP-057, 4° C., 1 hour
[2] = competition with 20 nM GIP-057, 4° C. for 1 hour

Structure (SMILES)	IC50 [1]	IC50 [2]
CC[C@H](C)[C@@H]1NC(=O)[C@H](CC(C)C)NC(=O)C2(CCOCC2)NC(=O)[C@@H](NC(=O)[C@@H](CC(C)C)NC(=O)[C@H](CCC(=O)O)NC(=O)[C@@H]2C[C@@H](O)CN2C(=O)[C@H](Cc2c[nH]c3ccc(Cl)cc23)NC(=O)[C@H](Cc2c[nH]c3ccccc23)NC(=O)[C@H](CC(=O)O)NC(=O)CCCC(=O)NC[C@H](O)[C@@H](O)[C@H](O)[C@H](O)CO)CSCc2cccc(n2)CSC[C@@H](C(N)=O)NC1=O [GIP-178, AGLU-Glutar-Asp-Trp-5Clw-Hyp-Glu-leu-[Cys(2Lut)-Thp-Leu-Ile-Cys]-NH2] ({NH(1-deoxy-D-glucityl)-Glutaryl}-DW[Trp(5-Cl)][Hyp]E[dL]C[Thp]LIC-NH2; linker 7-11 via Pyridine(2,6-diCH2))	< 10 nM	
CC[C@H](C)[C@@H]1NC(=O)[C@H](CC(C)C)NC(=O)C2(CCOCC2)NC(=O)[C@@H](NC(=O)[C@@H](CC(C)C)NC(=O)[C@H](CCC(=O)O)NC(=O)[C@@H]2C[C@@H](N)CN2C(=O)[C@H](Cc2c[nH]c3ccc(Cl)cc23)NC(=O)[C@H](Cc2c[nH]c3ccccc23)NC(=O)[C@H](CC(=O)O)NC(=O)[C@@H](CCC(=O)NC[C@H](O)[C@@H](O)[C@H](O)[C@H](O)CO)NC(=O)COCCOCCNC(=O)CN2CCN(CC(=O)O)CCN(CC(=O)O)CCN(CC(=O)O)CC2)CSCc2cccc(n2)CSC[C@@H](C(=O)NC2CCN(CC(=O)N[C@H](CCC(=O)NC[C@H](O)[C@@H](O)[C@H](O)[C@H](O)CO)C(N)=O)CC2)NC1=O [GIP-018, DOTA-O2Oc-glu(AGLU)-Asp-Trp-5Clw-Tap-Glu-leu-[Cys(2Lut)-Thp-Leu-Ile-Cys]-APAc-glu(AGLU)-NH2] ({DOTA-AEEA}-[dE](NH(1-deoxy-D-glucityl))DW[Trp(5-Cl)][Pro(4R-NH2)]E[dL]C[Thp]LIC[X1][dE](NH(1-deoxy-D-glucityl))-NH2; linker 8-12 via Pyridine(2,6-diCH2))	< 10 nM	
CC[C@H](C)[C@@H]1NC(=O)[C@H](CC(C)C)NC(=O)C2(CCOCC2)NC(=O)[C@@H](NC(=O)[C@@H](NC(=O)[C@H](CCC(=O)O)NC(=O)[C@@H]2C[C@@H](O)CN2C(=O)[C@H](Cc2c[nH]c3ccc(Cl)cc23)NC(=O)[C@H](Cc2c[nH]c3ccccc23)NC(=O)[C@H](CC(=O)O)NC(C)=O)[C@@H](C)CC)CSCc2cccc(n2)CSC[C@@H](C(N)=O)NC1=O [GIP-218, Ac-Asp-Trp-5Clw-Hyp-Glu-Ile-[Cys(2Lut)-Thp-Leu-Ile-Cys]-NH2] (Ac-DW[Trp(5-Cl)][Hyp]EIC[Thp]LIC-NH2; linker 7-11 via Pyridine(2,6-diCH2))	< 10 nM	
CC[C@H](C)[C@@H]1NC(=O)[C@H](CC(C)C)NC(=O)[C@@H](C)NC(=O)[C@@H](NC(=O)[C@@H](CC(C)C)NC(=O)[C@H](CCC(=O)O)NC(=O)[C@@H]2CCCN2C(=O)[C@H](Cc2c[nH]c3ccccc23)NC(=O)[C@H](Cc2c[nH]c3ccccc23)NC(=O)CCC(=O)O)CSCc2cc(CSCCNC(=O)CN3CCN(CC(=O)O)CCN(CC(=O)O)CCN(CC(=O)O)CC3)cc(c2)CSC[C@@H](C(N)=O)NC1=O [GIP-287, HO-Succinyl-Trp-Trp-Pro-Glu-leu-[Cys(tMeBn(DOTA-AET))-ala-Leu-Ile-Cys]-NH2] (Suc-WWPE[dL]C[dA]LIC-NH2; linker 6-10 via TBMB(SCH2CH2NH-DOTA))		> 1000 nM
CC(=O)N[C@@H](CC(=O)O)C(=O)N[C@@H](Cc1c[nH]c2ccccc12)C(=O)N[C@@H](Cc1cccc2ccccc12)C(=O)N1CCC[C@H]1C(=O)N[C@@H](CCC(=O)O)C(=O)N[C@H](CC(C)C)C(=O)N[C@H]1CSCc2cccc(c2)CSC[C@@H](C(=O)NCCCOCCOCCOCCCNC(=O)CCC(=O)N[C@@H](CCCCNC(=O)CN2CCN(CC(=O)O)CCN(CC(=O)O)CCN(CC(=O)O)CC2)C(N)=O)NC(=O)[C@@H](C(C)C)NC(=O)[C@H](CC(C)C)NC(=O)[C@H](C)NC1=O [GIP-300, Ac-Asp-Trp-1Ni-Pro-Glu-leu-[Cys(3MeBn)-Ala-Leu-val-Cys]-Ttds-Lys(DOTA)-NH2] (Ac-DW[1Nal]PE[dL]CAL[dV]C-X5; linker 7-11 via mXylylene)		> 1000 nM

Source: US20250296971A1, “GASTRIC INHIBITORY PEPTIDE RECEPTOR LIGANDS” (priority 2021, published 2025)
